Data from patent US12503448B2, “Antibacterial and antiparasitic quinoxaline-2,3-diamine derivatives” (University College Cardiff Consultants Limited, priority 2019, dated 2025).
Converted amounts (≈) assume the structure as drawn. Where two headings read alike, the source gives them in different places.

What was measured:
[1] = system: Staphylococcus aureus 11051; test: Antibacterial MIC (ISO 20776-1); type: cell-based
Excerpt: (§1) In vitro Determination of Antibacterial Activity
(§2) Scientific Reports 8 (1), 2018. Bacterial strains of Enterococcus faecalis—ATCC 29212, NCTC 12201, ATCC 51299; Streptococcus pneumoniae—ATCC 49619, 18778, 21394, 21395; Haemophilus influenza—ATCC 49766, 18391, 17428; Staphylococcus aureus—NCTC 12493, ATCC BAA-077, ATCC 700698, 11051; used for testing the compounds, as previously described in “Clinical laboratory testing and in vitro diagnostics test systems—Susceptibility testing of infectious agents and evaluation of performance of antimicrobial susceptibility devices—Part 1: Reference methods for testing the in vitro activity of antimicrobial agentes against bacteria involved in infectious diseases, ISO/FDIS 20776-1:2006(E). All the procedures were carried out in a biosafety containment level 2.

[2] = system: Enterococcus faecalis NCTC 12201; test: Antibacterial MIC (ISO 20776-1); type: cell-based; conditions: NCTC12201; Enterococcus faecalis NCTC 12201, Vancomycin resistance, vanA
Excerpt: as §1, §2

[3] = system: Haemophilus influenzae 17428; test: Antibacterial MIC (ISO 20776-1); type: cell-based; conditions: Haemophilus influenzae 17428, Ampicillin resistance, PBP
Excerpt: as §1, §2

[4] = system: Haemophilus influenzae ATCC 49766; test: Antibacterial MIC (ISO 20776-1); type: cell-based; conditions: ATCC49766
Excerpt: as §1, §2

[5] = system: Streptococcus pneumoniae 18778; test: Antibacterial MIC (ISO 20776-1); type: cell-based
Excerpt: as §1, §2

[6] = system: Streptococcus pneumoniae ATCC 49619; test: Antibacterial MIC (ISO 20776-1); type: cell-based; conditions: ATCC49619
Excerpt: as §1, §2

[7] = system: Enterococcus faecalis ATCC 29212; test: Antibacterial MIC (ISO 20776-1); type: cell-based; conditions: ATCC29212
Excerpt: as §1, §2

[8] = system: Streptococcus pneumoniae 21394; test: Antibacterial MIC (ISO 20776-1); type: cell-based
Excerpt: as §1, §2

[9] = system: Staphylococcus aureus ATCC BAA-977; test: Antibacterial MIC (ISO 20776-1); type: cell-based; conditions: ATCCBAA977
Excerpt: as §1, §2

[10] = system: Streptococcus pneumoniae 21395; test: Antibacterial MIC (ISO 20776-1); type: cell-based
Excerpt: as §1, §2

[11] = system: Enterococcus faecalis ATCC 51299; test: Antibacterial MIC (ISO 20776-1); type: cell-based; conditions: ATCC51299; Enterococcus faecalis ATCC 51299, Vancomycin resistance, vanB
Excerpt: as §1, §2

[12] = system: Staphylococcus aureus NCTC 12493; test: Antibacterial MIC (ISO 20776-1); type: cell-based; conditions: NCTC12493
Excerpt: as §1, §2

[13] = system: Haemophilus influenzae 18391; test: Antibacterial MIC (ISO 20776-1); type: cell-based; conditions: Haemophilus influenzae 18391, AMP/COA resistance, PBP/β-lactamase
Excerpt: as §1, §2

[14] = system: Staphylococcus aureus ATCC 700698; test: Antibacterial MIC (ISO 20776-1); type: cell-based; conditions: ATCC700698
Excerpt: as §1, §2

[15] = system: S. mansoni schistosomula; test: 72 hours schistosomula drug screen; type: cell-based, Schistosoma mansoni; conditions: for Selectivity Index Schistosomula: HepG2 CC50 over schistosomula EC50; for EC50: Schistosoma mansoni
Procedure, shortened: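 Newly transformed S. mansoni schistosomula were screened for 72 h in 384-well format. Phenotype and motility were scored, and a schistosomula average was derived.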

[16] = system: F. hepatica newly excysted juveniles (NEJs); test: Newly excysted juveniles (NEJs) drug screen; type: cell-based, Fasciola hepatica; design: scale not given here; conditions: 10 μM, 72 h; higher score indicates lower worm activity
Procedure, shortened: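 Italian-strain F. hepatica NEJs, 25 per well, exposed to compound at 10 μM (0.1% DMSO) for 72 h at 37 °C, 5% CO2. Each parasite scored for phenotype and motility; averaged over two replicates, higher score meaning lower worm activity.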

[17] = system: S. epidermidis NTCT11077; test: In vitro antibacterial activity; type: cell-based; conditions: Staphylococcus epidermidis
[18] = Mouse pharmacokinetics, oral cassette dosing
Protocol: Non-compartmental mouse pharmacokinetics (Male C57/BL6 Mouse, Fasted; 3 mice per group) were determined after oral administration of a nominal dose of 2.5 mg/kg of these formulations in cassettes (5 compounds/group) according to the protocols employed by WuXi (https://www.wuxiapptec.com; the CRO that conducted these studies).

[19] = Streptococcus pneumoniae, 18778
[20] = Streptococcus pneumoniae, 21394
[21] = Streptococcus pneumoniae, 21395
[22] = Staphylococcus aureus ATCC 700698, Vancomycin resistance, hVISA, read-out: MIC
[23] = schistosomula, 72 hour culture, read-out: EC50 Motility
[24] = schistosomula, 72 hour culture, read-out: EC50 Phenotype
[25] = male, C57/BL6, mouse, plasma, po, 2.5 mg/kg
[26] = Staphylococcus aureus 11051, Tetracycline resistance, read-out: MIC
[27] = Streptococcus pneumoniae 18778, ERY, TET resistance, read-out: MIC
[28] = Streptococcus pneumoniae ATCC 49619, read-out: MIC
[29] = Enterococcus faecalis ATCC 29212, read-out: MIC
[30] = Streptococcus pneumoniae 21394, Penicillin resistance, PBP, read-out: MIC
[31] = Staphylococcus aureus ATCC BAA-977, ERY/CLIND resistance, MLSB, read-out: MIC
[32] = Streptococcus pneumoniae 21395, ERY, CLIND resistance, MLSB, read-out: MIC
[33] = Staphylococcus aureus NCTC 12493, Flucloxacillin resistance, mecA, read-out: MIC
[34] = average of phenotype and motility, read-out: EC50 Schistosomula average
[35] = S. epidermidis NTCT11077, read-out: MIC90
[36] = oral, nominal dose 2.5 mg/kg, cassette

| SMILES | MIC ([1]; Staphylococcus aureus, 11051) [µg/mL] | MIC [2] [µg/mL] | MIC [3] [µg/mL] | MIC [4] [µg/mL] | MIC [5, 19] [µg/mL] | MIC ([6]; Streptococcus pneumoniae) [µg/mL] | MIC ([7]; Enterococcus faecalis) [µg/mL] | MIC [8, 20] [µg/mL] | MIC [11] [µg/mL] | MIC [13] [µg/mL] | MIC [14, 22] [µg/mL] | Selectivity Index Schistosomula [15] | EC50 [15, 23] [nM] | EC50 [15, 24] [nM] | Motility (M) Mean score [16] | Phenotype (P) Mean score [16] | AUC(0-t) [18, 25] [ng·h/mL] | Cmax [18, 25] [ng/mL] | MRT last [18, 25] [h] | Tmax [18, 25] [h] | also measured |
| --- | --- | --- | --- | --- | --- | --- | --- | --- | --- | --- | --- | --- | --- | --- | --- | --- | --- | --- | --- | --- | --- |
| O=[N+]([O-])c1ccc2nc(Nc3ccc(F)c(C(F)(F)F)c3)c(Nc3ccc(F)c(C(F)(F)F)c3)nc2c1 [Compound 7, N^2, N^3-bis(4-fluoro-3-(trifluoromethyl)phenyl)-6-nitroquinoxaline-2,3-diamine] | 0.5 (≈ 0.945 µM) | 0.5 (≈ 0.945 µM) | > 64 | > 64 | 32 (≈ 60.5 µM) | 8 (≈ 15.1 µM) | 1 (≈ 1.89 µM) | 32 (≈ 60.5 µM) | 0.5 (≈ 0.945 µM) | > 64 | 0.5 (≈ 0.945 µM) | 14 | 540 | 540 | 4.56 | 5.00 | 89.6 | 21.2 | 4.75 | 4 | MIC ([9]; Staphylococcus aureus): 0.5 µg/mL (≈ 0.945 µM); MIC [10, 21]: 8 µg/mL (≈ 15.1 µM); MIC ([12]; Staphylococcus aureus): 0.5 µg/mL (≈ 0.945 µM); MIC90 ([17]; NTCT11077): < 62.5 µg/mL |
| O=[N+]([O-])c1ccc2nc(Nc3ccc(C(F)(F)F)cc3)c(Nc3ccc(C(F)(F)F)cc3)nc2c1 [Compound 11, 6-nitro-N^2, N^3-bis(4-(trifluoromethyl)phenyl)quinoxaline-2,3-diamine] | – | 0.06 (≈ 0.122 µM) | 16 (≈ 32.4 µM) | 16 (≈ 32.4 µM) | – | – | – | – | 0.25 (≈ 0.507 µM) | 16 (≈ 32.4 µM) | 0.125 (≈ 0.253 µM) | 33 | 530 | 420 | 4.17 | 4.28 | 419 | 68.8 | 6.5 | 4 | MIC [1, 26]: 0.125 µg/mL (≈ 0.253 µM); MIC [5, 27]: 4 µg/mL (≈ 8.11 µM); MIC [6, 28]: 2 µg/mL (≈ 4.05 µM); MIC [7, 29]: 0.06 µg/mL (≈ 0.122 µM); MIC [8, 30]: 4 µg/mL (≈ 8.11 µM); MIC [9, 31]: 0.125 µg/mL (≈ 0.253 µM); MIC [10, 32]: 2 µg/mL (≈ 4.05 µM); MIC [12, 33]: 0.125 µg/mL (≈ 0.253 µM); EC50 [15, 34]: 480 nM; MIC90 [17, 35]: < 62.5 µg/mL; half-life ([18]; male, C57/BL6, mouse, in vivo, po, 2.5 mg/kg): 3.74 h; AUC(0-inf) [18, 25]: 444 ng·h/mL; MRT inf [18, 25]: 7.84 h; AUCExtra [18, 36]: 1.82%; AUMCExtra [18, 36]: 6.77% |
| COc1ccc(Nc2nc3ccc([N+](=O)[O-])cc3nc2Nc2ccc(OC)c(C(F)(F)F)c2)cc1C(F)(F)F [Compound 12, N^2, N^3-bis(4-methoxy-3-(tritluoromethyl)phenyl)-6-nitroquinoxaline-2,3-diamine] | – | 0.5 (≈ 0.903 µM) | > 128 | 64 (≈ 116 µM) | – | – | – | – | 1 (≈ 1.81 µM) | 64 (≈ 116 µM) | 1 (≈ 1.81 µM) | 9 | 650 | 570 | 4.45 | 4.70 | 77.8 | 20.1 | 4.76 | 4 | MIC [1, 26]: 2 µg/mL (≈ 3.61 µM); MIC [5, 27]: 16 µg/mL (≈ 28.9 µM); MIC [6, 28]: 8 µg/mL (≈ 14.5 µM); MIC [7, 29]: 0.5 µg/mL (≈ 0.903 µM); MIC [8, 30]: 8 µg/mL (≈ 14.5 µM); MIC [9, 31]: 1 µg/mL (≈ 1.81 µM); MIC [10, 32]: 8 µg/mL (≈ 14.5 µM); MIC [12, 33]: 1 µg/mL (≈ 1.81 µM); EC50 [15, 34]: 610 nM; MIC90 [17, 35]: < 62.5 µg/mL |
| O=[N+]([O-])c1ccc2nc(Nc3cccc(Cl)c3)c(Nc3cccc(Cl)c3)nc2c1 [Compound 5, N^2, N^3-bis(3-chlorophenyl)-6-nitroquinoxaline-2,3-diamine] | 0.125 (≈ 0.293 µM) | 0.06 (≈ 0.141 µM) | 8 (≈ 18.8 µM) | 4 (≈ 9.38 µM) | 8 (≈ 18.8 µM) | 4 (≈ 9.38 µM) | 0.25 (≈ 0.586 µM) | 4 (≈ 9.38 µM) | 0.25 (≈ 0.586 µM) | 8 (≈ 18.8 µM) | – | 5 | 1300 | 1220 | 4.20 | 4.70 | – | – | – | – | MIC ([9]; Staphylococcus aureus): 0.125 µg/mL (≈ 0.293 µM); MIC [10, 21]: 4 µg/mL (≈ 9.38 µM); MIC ([12]; Staphylococcus aureus): 0.06 µg/mL (≈ 0.141 µM); MIC ([14]; Staphylococcus aureus): 0.125 µg/mL (≈ 0.293 µM); MIC90 ([17]; NTCT11077): < 62.5 µg/mL |
